In US20070049564A1 (Wyeth, priority 2005, published 2007):
≈ marks a conversion by molar mass, not a printed value. Like-named read-outs stand apart in the source and are kept apart here.

What was measured:
E. coli GC 2235 = test: MIC, broth microdilution; settings: Escherichia coli
S. pneumoniae+ GC 4465 = test: MIC, broth microdilution; settings: Streptococcus pneumoniae
Staph. aureus Smith = test: In vivo activity (oral, iv; ED50) against Staph. aureus Smith in mice
Method: Representative examples of compounds of Formula I were tested for the oral efficacy using S. aureus Smith in mice.

P. aeruginosa GC 2214 = test: MIC, broth microdilution; settings: Pseudomonas aeruginosa
E. coli GC 2234 = test: MIC, broth microdilution; settings: Escherichia coli
E. coli GC 2236 = test: MIC, broth microdilution; settings: Escherichia coli
S. epidermidis GC 4935 = test: MIC, broth microdilution; settings: Staphylococcus epidermidis
c. albicans GC 3066 = test: MIC, broth microdilution
S. aureus GC 1079 = test: MIC, broth microdilution; settings: Staphylococcus aureus
S. aureus GC 2216 = test: MIC, broth microdilution; settings: Staphylococcus aureus
E. faecalis GC 2242 = test: MIC, broth microdilution; settings: Enterococcus faecalis
S. aureus GC 6335 = test: MIC, broth microdilution; settings: Staphylococcus aureus
E. coli GC 1073 = test: MIC, broth microdilution; settings: Escherichia coli
E. faecium GC 4556 = test: MIC, broth microdilution; settings: Enterococcus faecium
E. coli GC 2233 = test: MIC, broth microdilution; settings: Escherichia coli
E. coli GC 4559 = test: MIC, broth microdilution; settings: Escherichia coli
E. coli GC 2271 = test: MIC, broth microdilution; settings: Escherichia coli
E. coli GC 2270 = test: MIC, broth microdilution; settings: Escherichia coli
S. aureus GC 1131 = test: MIC, broth microdilution; settings: Staphylococcus aureus
S. pyogenes GC 4563 = test: MIC, broth microdilution; settings: Streptococcus pyogenes

In the case of CN(C)c1cc(NC(=O)CN(C(=O)OCOC(=O)c2ccc(C(C)(C)C)cc2)C(C)(C)C)c(O)c2c1C[C@H]1C[C@H]3[C@H](N(C)C)C(O)=C(C(N)=O)C(=O)[C@@]3(O)C(O)=C1C2=O [Example 43, ({[(2-{[(5aR,6aS,7S,10aS)-9-(aminocarbonyl)-4,7-bis(dimethylamino)-1,8,10a,11-tetrahydroxy-10,12-dioxo-5,5a,6,6a,7,10,10a,12-octahydrotetracen-2-yl]amino}-2-oxoethyl)(tert-butyl)amino]carbonyl}oxy)methyl 4-tert-butylbenzoate], the MIC (E. coli GC 2235; GC2235, read-out: MINIMAL INHIBITORY CONCENTRATION MIC, pre-incubated in Human Serum) is reported as over 64 µg/mL, the MIC (E. coli GC 2235; GC2235, read-out: MINIMAL INHIBITORY CONCENTRATION MIC, pre-incubated in Mouse Serum) is reported as 0.25 µg/mL (≈ 0.305 µM) and the MIC (E. coli GC 2235; GC2235, read-out: MINIMAL INHIBITORY CONCENTRATION MIC, pre-incubated in Water) is reported as over 64 µg/mL. For the same compound, the MIC (S. pneumoniae+ GC 4465; read-out: MINIMAL INHIBITORY CONCENTRATION MIC, pre-incubated in Human Serum) was 2 µg/mL (≈ 2.44 µM), the MIC (S. pneumoniae+ GC 4465; read-out: MINIMAL INHIBITORY CONCENTRATION MIC, pre-incubated in Mouse Serum) was 2 µg/mL (≈ 2.44 µM) and the MIC (S. pneumoniae+ GC 4465; read-out: MINIMAL INHIBITORY CONCENTRATION MIC, pre-incubated in Water) was 2 µg/mL (≈ 2.44 µM). The ED50 (Staph. aureus Smith; Staphylococcus aureus, in Mus musculus, po, read-out: ED50 Staph Smith SOD) was 12.8 mg/kg, the ED50 (Staph. aureus Smith; iv, read-out: ED50 Staph Smith SIV) was 0.83 mg/kg and the MIC (P. aeruginosa GC 2214; GC2214, read-out: MINIMAL INHIBITORY CONCENTRATION MIC, pre-incubated in Human Serum) was over 64 µg/mL. It also gave an MIC (P. aeruginosa GC 2214; GC2214, read-out: MINIMAL INHIBITORY CONCENTRATION MIC, pre-incubated in Mouse Serum) of 16 µg/mL (≈ 19.5 µM), an MIC (P. aeruginosa GC 2214; GC2214, read-out: MINIMAL INHIBITORY CONCENTRATION MIC, pre-incubated in Water) of over 64 µg/mL and an MIC (E. coli GC 2234; GC2234, read-out: MINIMAL INHIBITORY CONCENTRATION MIC, pre-incubated in Human Serum) of over 64 µg/mL. For the same compound, the MIC (E. coli GC 2234; GC2234, read-out: MINIMAL INHIBITORY CONCENTRATION MIC, pre-incubated in Mouse Serum) was 0.25 µg/mL (≈ 0.305 µM), the MIC (E. coli GC 2234; GC2234, read-out: MINIMAL INHIBITORY CONCENTRATION MIC, pre-incubated in Water) was over 64 µg/mL and the MIC (E. coli GC 2236; GC2236, read-out: MINIMAL INHIBITORY CONCENTRATION MIC, pre-incubated in Human Serum) was over 64 µg/mL. The MIC (E. coli GC 2236; GC2236, read-out: MINIMAL INHIBITORY CONCENTRATION MIC, pre-incubated in Mouse Serum) was 0.5 µg/mL (≈ 0.61 µM), the MIC (E. coli GC 2236; GC2236, read-out: MINIMAL INHIBITORY CONCENTRATION MIC, pre-incubated in Water) was over 64 µg/mL and the MIC (S. epidermidis GC 4935; GC4935, read-out: MINIMAL INHIBITORY CONCENTRATION MIC, pre-incubated in Human Serum) was 4 µg/mL (≈ 4.88 µM). It also gave an MIC (S. epidermidis GC 4935; GC4935, read-out: MINIMAL INHIBITORY CONCENTRATION MIC, pre-incubated in Mouse Serum) of 2 µg/mL (≈ 2.44 µM), an MIC (S. epidermidis GC 4935; GC4935, read-out: MINIMAL INHIBITORY CONCENTRATION MIC, pre-incubated in Water) of 32 µg/mL (≈ 39 µM) and an MIC (c. albicans GC 3066; Candida albicans, GC3066, read-out: MINIMAL INHIBITORY CONCENTRATION MIC) of over 64 µg/mL. The “MINIMAL INHIBITORY CONCENTRATION MIC” value (c. albicans GC 3066; pre-incubated in Human Serum) was over 64 UG/ML, the “MINIMAL INHIBITORY CONCENTRATION MIC” value (c. albicans GC 3066; pre-incubated in Mouse Serum) was over 64 UG/ML and the MIC (S. aureus GC 1079; GC1079, read-out: MINIMAL INHIBITORY CONCENTRATION MIC, pre-incubated in Human Serum) was 32 µg/mL (≈ 39 µM). It also gave an MIC (S. aureus GC 1079; GC1079, read-out: MINIMAL INHIBITORY CONCENTRATION MIC, pre-incubated in Mouse Serum) of 1 µg/mL (≈ 1.22 µM), an MIC (S. aureus GC 1079; GC1079, read-out: MINIMAL INHIBITORY CONCENTRATION MIC, pre-incubated in Water) of 64 µg/mL (≈ 78.1 µM) and an MIC (S. aureus GC 2216; GC2216, read-out: MINIMAL INHIBITORY CONCENTRATION MIC, pre-incubated in Human Serum) of 32 µg/mL (≈ 39 µM). For the same compound, the MIC (S. aureus GC 2216; GC2216, read-out: MINIMAL INHIBITORY CONCENTRATION MIC, pre-incubated in Mouse Serum) was 0.5 µg/mL (≈ 0.61 µM), the MIC (S. aureus GC 2216; GC2216, read-out: MINIMAL INHIBITORY CONCENTRATION MIC, pre-incubated in Water) was 64 µg/mL (≈ 78.1 µM) and the MIC (E. faecalis GC 2242; GC2242, read-out: MINIMAL INHIBITORY CONCENTRATION MIC, pre-incubated in Human Serum) was 4 µg/mL (≈ 4.88 µM). For the same compound, the MIC (E. faecalis GC 2242; GC2242, read-out: MINIMAL INHIBITORY CONCENTRATION MIC, pre-incubated in Mouse Serum) was 0.5 µg/mL (≈ 0.61 µM), the MIC (E. faecalis GC 2242; GC2242, read-out: MINIMAL INHIBITORY CONCENTRATION MIC, pre-incubated in Water) was 16 µg/mL (≈ 19.5 µM) and the MIC (S. aureus GC 6335; GC6335, read-out: MINIMAL INHIBITORY CONCENTRATION MIC, pre-incubated in Human Serum) was 64 µg/mL (≈ 78.1 µM). For the same compound, the MIC (S. aureus GC 6335; GC6335, read-out: MINIMAL INHIBITORY CONCENTRATION MIC, pre-incubated in Mouse Serum) was 1 µg/mL (≈ 1.22 µM), the MIC (S. aureus GC 6335; GC6335, read-out: MINIMAL INHIBITORY CONCENTRATION MIC, pre-incubated in Water) was 64 µg/mL (≈ 78.1 µM) and the MIC (E. coli GC 1073; GC1073, read-out: MINIMAL INHIBITORY CONCENTRATION MIC, pre-incubated in Human Serum) was over 64 µg/mL. It also gave an MIC (E. coli GC 1073; GC1073, read-out: MINIMAL INHIBITORY CONCENTRATION MIC, pre-incubated in Mouse Serum) of 0.5 µg/mL (≈ 0.61 µM), an MIC (E. coli GC 1073; GC1073, read-out: MINIMAL INHIBITORY CONCENTRATION MIC, pre-incubated in Water) of over 64 µg/mL and an MIC (E. faecium GC 4556; GC4556, read-out: MINIMAL INHIBITORY CONCENTRATION MIC, pre-incubated in Human Serum) of 8 µg/mL (≈ 9.76 µM). For the same compound, the MIC (E. faecium GC 4556; GC4556, read-out: MINIMAL INHIBITORY CONCENTRATION MIC, pre-incubated in Mouse Serum) was 0.5 µg/mL (≈ 0.61 µM), the MIC (E. faecium GC 4556; GC4556, read-out: MINIMAL INHIBITORY CONCENTRATION MIC, pre-incubated in Water) was 16 µg/mL (≈ 19.5 µM) and the MIC (E. coli GC 2233; GC2233, read-out: MINIMAL INHIBITORY CONCENTRATION MIC, pre-incubated in Human Serum) was over 64 µg/mL. For the same compound, the MIC (E. coli GC 2233; GC2233, read-out: MINIMAL INHIBITORY CONCENTRATION MIC, pre-incubated in Mouse Serum) was 0.5 µg/mL (≈ 0.61 µM), the MIC (E. coli GC 2233; GC2233, read-out: MINIMAL INHIBITORY CONCENTRATION MIC, pre-incubated in Water) was over 64 µg/mL and the MIC (E. coli GC 4559; GC4559, read-out: MINIMAL INHIBITORY CONCENTRATION MIC, pre-incubated in Human Serum) was over 64 µg/mL. The MIC (E. coli GC 4559; GC4559, read-out: MINIMAL INHIBITORY CONCENTRATION MIC, pre-incubated in Mouse Serum) was 0.5 µg/mL (≈ 0.61 µM), the MIC (E. coli GC 4559; GC4559, read-out: MINIMAL INHIBITORY CONCENTRATION MIC, pre-incubated in Water) was over 64 µg/mL and the MIC (E. coli GC 2271; GC2271, read-out: MINIMAL INHIBITORY CONCENTRATION MIC, pre-incubated in Human Serum) was over 64 µg/mL. For the same compound, the MIC (E. coli GC 2271; GC2271, read-out: MINIMAL INHIBITORY CONCENTRATION MIC, pre-incubated in Mouse Serum) was 0.25 µg/mL (≈ 0.305 µM), the MIC (E. coli GC 2271; GC2271, read-out: MINIMAL INHIBITORY CONCENTRATION MIC, pre-incubated in Water) was over 64 µg/mL and the MIC (E. coli GC 2270; GC2270, read-out: MINIMAL INHIBITORY CONCENTRATION MIC, pre-incubated in Human Serum) was over 64 µg/mL. The MIC (E. coli GC 2270; GC2270, read-out: MINIMAL INHIBITORY CONCENTRATION MIC, pre-incubated in Mouse Serum) was 0.25 µg/mL (≈ 0.305 µM), the MIC (E. coli GC 2270; GC2270, read-out: MINIMAL INHIBITORY CONCENTRATION MIC, pre-incubated in Water) was over 64 µg/mL and the MIC (S. aureus GC 1131; GC1131, read-out: MINIMAL INHIBITORY CONCENTRATION MIC, pre-incubated in Human Serum) was 16 µg/mL (≈ 19.5 µM). For the same compound, the MIC (S. aureus GC 1131; GC1131, read-out: MINIMAL INHIBITORY CONCENTRATION MIC, pre-incubated in Mouse Serum) was 1 µg/mL (≈ 1.22 µM), the MIC (S. aureus GC 1131; GC1131, read-out: MINIMAL INHIBITORY CONCENTRATION MIC, pre-incubated in Water) was 64 µg/mL (≈ 78.1 µM) and the MIC (S. pyogenes GC 4563; GC4563, read-out: MINIMAL INHIBITORY CONCENTRATION MIC, pre-incubated in Human Serum) was under 0.06 µg/mL. For the same compound, the MIC (S. pyogenes GC 4563; GC4563, read-out: MINIMAL INHIBITORY CONCENTRATION MIC, pre-incubated in Mouse Serum) was under 0.06 µg/mL and the MIC (S. pyogenes GC 4563; GC4563, read-out: MINIMAL INHIBITORY CONCENTRATION MIC, pre-incubated in Water) was under 0.06 µg/mL.
